For data set [1] the following is noted: instrument: DT, stepped-field.
The conditions of data set [2]: instrument: DT, stepped-field. The source holds these as a separate data set.
For data set [3] the following is noted: instrument: TW, calibrated with phosphatidylcholines (ESI+) and phosphatidylethanolamines (ESI-).
For data set [4] the following is noted: instrument: DT, single field, calibrated with Agilent tune mix (Agilent).
For data set [5] the following is noted: instrument: DT, stepped-field. This is another data set of the same source.
For data set [6] the following is noted: [M+Na]+; instrument: TW; calibrated with polyalanine.
The conditions of data set [7]: instrument: DT, stepped-field. This is another data set of the same source.
For data set [8] the following is noted: instrument: DT, single field.

“And” between values parts separate entries of the source, which are not always exact repeats. Identical values can stand only once.

As for `CN1c2c(nc(N)[nH]c2=O)NCC1CNc1ccc(C(=O)N[C@H](CCC(=O)O)C(=O)O)cc1` (stereo partly specified) [5-Methyl-THF], the “collision cross section (N2)” value in data set [1] ([M+H]+) is reported as 197.52 Å²; in data set [1] ([M-H]-), 200.57 Å².

For `CCCCCCCCCCCCCCCC(=O)O[C@H](CO)COP(=O)(O)O` [LPA(16:0)], the “collision cross section (N2)” value in data set [2] ([M-H]-) worked out at 194.5 Å².

With `CCCCCC/C=C/CCCCCCCC(=O)OC[C@@H](O)COP(=O)([O-])OCC[N+](C)(C)C` [LPC(16:1)], the “collision cross section (N2)” value in data set [3] ([M+H]+) is reported as 223.4 Å²; in data set [4] ([M+HCOO]-) it was 231.3 Å²; in data set [2] ([M+H]+), 227.7 Å².

Turning to `CCCCCCC/C=C\CCCCCCCC(=O)OC[C@@H](O)COP(=O)(O)OC[C@@H](O)CO` [LPG(17:1)], the “collision cross section (N2)” value in data set [2] ([M-H]-) is 213.5 Å².

On to `CCCCCCCC/C=C\CCCCCCCC(=O)OC[C@@H](O)COP(=O)(O)OC[C@@H](O)CO` [LPG(18:1)], for which the “collision cross section (N2)” value in data set [2] ([M-H]-) was 217.9 Å² and 216.9 Å².

As to `CCCCCC/C=C\CCCCCCCC(=O)OC[C@@H](O)COP(=O)(O)O[C@H]1C(O)C(O)C(O)[C@@H](O)C1O` (stereo partly specified) [LPI(16:1)], the “collision cross section (N2)” value in data set [2] ([M-H]-) came out at 226.1 Å².

`CCCCCCCCCCCCCCCCCC(=O)OC[C@@H](O)COP(=O)(O)O[C@H]1C(O)C(O)C(O)[C@@H](O)C1O` (stereo partly specified) [LPI(18:0)]: the “collision cross section (N2)” value in data set [4] ([M+H]+) is on record as 244.7 Å²; in data set [4] ([M-H]-), 236.8 Å²; in data set [2] ([M-H]-) it was 236.1 Å².

As for `OC[C@@H](O)[C@@H](O)[C@H](O)[C@H](O)CO` [Mannitol], the “collision cross section (N2)” value turned out to be 144.5 Å² in data set [5] ([M+Li]+), 140.6 Å² in data set [5] ([M+Na]+) and 137 Å² in data set [6].

On to `CCCC/C=C\C/C=C\CCCCCCCC(=O)O[C@H](COC(=O)CCCCCCCCCCCC)COP(=O)([O-])OCC[N+](C)(C)C` [PC(14:1/16:1)], for which the “collision cross section (N2)” value in data set [2] ([M+H]+) came to 279.6 Å².

In the case of `CCCCCCCCCC/C=C\CCCCCCCCCC(=O)O[C@H](COC(=O)CCCCCCCCCCC)COP(=O)([O-])OCC[N+](C)(C)C` [PC(16:0/18:1)], the “collision cross section (N2)” value in data set [2] ([M+H]+) is 291.4 Å² and 299.1 Å².

For the compound `CCCCC/C=C\C/C=C\CCCCCCCCCC(=O)O[C@H](COC(=O)CCCCCCCCCCC)COP(=O)([O-])OCC[N+](C)(C)C` [PC(16:1/16:1)], the “collision cross section (N2)” value in data set [7] ([M+H]+) is recorded as 280.16 Å²; in data set [7] ([M+Na]+), 286.9 Å²; in data set [2] ([M+H]+), 287.8 Å².

Turning to `CCCCC/C=C\C/C=C\CCCCCCCCCC(=O)O[C@H](COC(=O)CCCCCCCCCCCCC)COP(=O)([O-])OCC[N+](C)(C)C` [PC(16:1/18:1)], the “collision cross section (N2)” value in data set [2] ([M+H]+) was 295.3 Å² and 295.1 Å².

Take `CCCC/C=C\CCCCCCCC(=O)OC[C@H](COP(=O)([O-])OCC[N+](C)(C)C)OC(=O)CCCCCCCCCCCCCCCCCCCCC` [PC(18:0/18:1)]: in data set [2] ([M+H]+), the “collision cross section (N2)” value is 306.1 Å² and 306 Å².

As for `CCCCC/C=C\C/C=C\CCCCCCCCCCCC(=O)O[C@H](COC(=O)CCCCCCCCCCCCC)COP(=O)([O-])OCC[N+](C)(C)C` [PC(18:1/18:1)], the “collision cross section (N2)” value was 296.42 Å² and 297.29 Å² in data set [7] ([M+H]+); 298.03 Å² and 300.74 Å² in data set [7] ([M+Na]+); 302.7 Å² and 302.8 Å² in data set [2] ([M+H]+).

Consider `CCCCCC/C=C\CCCCCCCCCC(=O)O[C@H](COC(=O)CCCCCCC/C=C\CCCCCCCC)COP(=O)([O-])OCC[N+](C)(C)C` [PC(36:2)], for which the “collision cross section (N2)” value in data set [3] ([M+CH3COO]-) was 293.3 Å²; in data set [3] ([M+H]+) it was 288.5 Å²; in data set [8] ([M+H]+), 288.83 Å² and 290.58 Å²; in data set [8] ([M+Na]+), 293.18 Å²; in data set [4] ([M+HCOO]-), 291 Å²; in data set [4] ([M+H]+) it was 291.3 Å². In addition, the results for the “collision cross section (N2)” value in data set [4] ([M+Na]+) and in data set [2] ([M+H]+) were 295.1 Å² and 303.1 Å², respectively.

With `CCCCC/C=C\C/C=C\CCCCCCCC(=O)OC[C@H](COP(=O)([O-])OCC[N+](C)(C)C)OC(=O)CCCCCCCCC/C=C\CCCCCC` [PC(36:3)], the “collision cross section (N2)” value is 291.6 Å² in data set [3] ([M+CH3COO]-); 285.5 Å² in data set [3] ([M+H]+); 289.4 Å² in data set [4] ([M+HCOO]-); 288.8 Å² in data set [4] ([M+H]+); 291.9 Å² in data set [4] ([M+Na]+); 295.8 Å² in data set [2] ([M+H]+).

Consider `CCCCC/C=C\C/C=C\CCCCCCCC(=O)O[C@H](COCCCCCCCCCCCCCCCC)COP(=O)([O-])OCC[N+](C)(C)C` [PC(o34:2)], for which, in data set [2] ([M+H]+), the “collision cross section (N2)” value is on record as 297.2 Å².

As for `CCCCC/C=C\C/C=C\CCCCCCCC(=O)O[C@H](COCCCCCCCCCCCCCCCCCC)COP(=O)([O-])OCC[N+](C)(C)C` [PC(o36:2)], in data set [2] ([M+H]+), the “collision cross section (N2)” value is on record as 303.1 Å².

For `CCCCCC/C=C\CCCCCCCCCC(=O)O[C@H](COC(=O)CCCCCCCCCCCCCCC)COP(=O)(O)OCCN` [PE(16:0/18:1)], in data set [2] ([M+H]+), the “collision cross section (N2)” value was found to be 286.1 Å².

For `CCCCCCCC/C=C\CCCCCCCCCC(=O)O[C@H](COC(=O)CCCCCCCCCCCC)COP(=O)(O)OCCN` [PE(33:1)], the “collision cross section (N2)” value in data set [2] ([M-H]-) was determined as 266.7 Å².

Consider `CCCCC/C=C\C/C=C\C/C=C\CCCCC(=O)O[C@H](COCCCCCCCCCCCCCCCC)COP(=O)(O)OCCN` [PE(o34:3)], for which the figures for the “collision cross section (N2)” value in data set [5] ([M+Na]+) and in data set [2] ([M-H]-) were 278 Å² and 266.5 Å², respectively.

As for `CCCCCCCC/C=C\CCCCCCCCCC(=O)O[C@H](COC(=O)CCCCCCCCCCC)COP(=O)(O)OC[C@@H](O)CO` [PG(16:0/16:1)], the “collision cross section (N2)” value in data set [2] ([M-H]-) is given as 268.7 Å².

As to `CCCCCCCCCC/C=C\CCCCCCCCCC(=O)O[C@H](COC(=O)CCCCCCCCCCC)COP(=O)(O)OC[C@@H](O)CO` [PG(16:0/18:1)], in data set [2] ([M-H]-), the “collision cross section (N2)” value is 276.7 Å² and 277.1 Å² and 277 Å².

Regarding `CC/C=C\C/C=C\C/C=C\CCCCCCCC(=O)O[C@H](COC(=O)CCCCCCCCC/C=C\CCCCCCCC)COP(=O)(O)OC[C@@H](O)CO` [PG(38:4)], the “collision cross section (N2)” value is recorded as 287.8 Å² in data set [3] ([M+Na]+); 277.7 Å² in data set [3] ([M-H]-); 294.5 Å² in data set [4] ([M+NH4]+); 290.2 Å² in data set [4] ([M+Na]+); 278.7 Å² in data set [4] ([M-H]-); 285.6 Å² in data set [2] ([M-H]-).

For the compound `CCCCCCCCCCCCCCCC(=O)OC[C@H](COP(=O)(O)O[C@H]1C(O)C(O)C(O)[C@@H](O)C1O)OC(=O)CCCCCCCCCCCCC` (stereo partly specified) [PI(14:0/16:0)], in data set [2] ([M-H]-), the “collision cross section (N2)” value amounted to 280.1 Å².

For `CCCCC/C=C\C/C=C\CCCCCCCC(=O)O[C@H](COC(=O)CCCCCCCCCCC)COP(=O)(O)O[C@H]1C(O)C(O)C(O)[C@@H](O)C1O` (stereo partly specified) [PI(14:1/16:1)], the “collision cross section (N2)” value in data set [2] ([M-H]-) came to 283.6 Å².

For the compound `CCCCCCCC/C=C\CCCCCCCCCC(=O)O[C@H](COC(=O)CCCCCCCCCCC)COP(=O)(O)O[C@H]1C(O)C(O)C(O)[C@@H](O)C1O` (stereo partly specified) [PI(16:0/16:1)], the “collision cross section (N2)” value in data set [2] ([M-H]-) is listed as 284.6 Å².

As to `CCCC/C=C\CCCCCCCC(=O)OC[C@H](COP(=O)(O)O[C@H]1C(O)C(O)C(O)[C@@H](O)C1O)OC(=O)CCCCCCC/C=C\CCCCCCCC` (stereo partly specified) [PI(16:1/16:1)], the “collision cross section (N2)” value in data set [2] ([M-H]-) came out at 282.9 Å².

As for `CCCC/C=C\CCCCCCCC(=O)OC[C@H](COP(=O)(O)O[C@H]1C(O)C(O)C(O)[C@@H](O)C1O)OC(=O)CCCCCCCCC/C=C\CCCCCCCCCC` (stereo partly specified) [PI(18:1/18:1)], in data set [2] ([M-H]-), the “collision cross section (N2)” value is 295.9 Å² and 296.2 Å².

On to `CCCCC/C=C\C/C=C\C/C=C\CCCCC(=O)O[C@H](COC(=O)CCCCCCCCC/C=C\C/C=C\CCCCC)COP(=O)(O)O[C@H]1C(O)C(O)C(O)[C@@H](O)C1O` (stereo partly specified) [PI(38:5)], for which the “collision cross section (N2)” value in data set [3] ([M+Na]+) was 294.5 Å²; in data set [3] ([M-H]-), 290.9 Å²; in data set [4] ([M+H]+) it was 299.9 Å²; in data set [4] ([M+Na]+), 298.7 Å²; in data set [4] ([M-H]-), 291.8 Å²; in data set [2] ([M-H]-) it was 302 Å² and 299.6 Å².

As to `CCCCC/C=C\C/C=C\CCCCCCCCCCCC(=O)O[C@H](COC(=O)CCCCCCCCCCCCC)COP(=O)(O)OC[C@H](N)C(=O)O` [PS(36:2)], the “collision cross section (N2)” value in data set [3] ([M-H]-) was 277.4 Å²; in data set [4] ([M+H]+) it was 283 Å²; in data set [4] ([M+Na]+), 284.2 Å²; in data set [4] ([M-H]-) it was 277.5 Å²; in data set [2] ([M-H]-), 285 Å² and 286.5 Å².

On to `CCCCC/C=C\C/C=C\C/C=C\CCCCCCC(=O)O[C@H](COC(=O)CCCCCCC/C=C\CCCCCCCC)COP(=O)(O)OC[C@H](N)C(=O)O` [PS(38:4)], for which the “collision cross section (N2)” value in data set [3] ([M-H]-) was determined as 280.9 Å²; in data set [4] ([M+Na]+), 290.6 Å²; in data set [2] ([M-H]-), 291.4 Å².

As to `CCCCC/C=C\C/C=C\CCCCCCCCCCCC(=O)O[C@H](COC(=O)CCCCCCC/C=C\C/C=C\CCCCC)COP(=O)(O)OC[C@H](N)C(=O)O` [PS(40:4)], the “collision cross section (N2)” value in data set [4] ([M+H]+) worked out at 293.2 Å²; in data set [4] ([M+Na]+), 297.6 Å²; in data set [4] ([M-H]-), 286.9 Å²; in data set [2] ([M-H]-) it was 297.6 Å².

The values above are taken from the C3SDB collision cross section collection.
